Experiment in all cases: NCI-60 cell line screen, 48 h
Assay [1] concerns SN12C renal.
Assay [2] concerns HOP-92 NSCLC.
The test system of assay [3] is SF-268 CNS.
Assay [4] relates to SW-620 colon.
Assay [5] relates to SNB-19 CNS.
The subject of assay [6] is SK-OV-3 ovarian.
Assay [7] has as its system SF-539 CNS.
Assay [8] concerns CCRF-CEM leukemia.
Assay [9] deals with RPMI-8226 leukemia.
The subject of assay [10] is SK-MEL-28 melanoma.

Where “and” joins values, the source holds several entries; their conditions need not be identical. Identical values can stand only once.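 A five-concentration, 48-hour dose response in 96-well plates underlies each endpoint, interpolated linearly between surrounding concentrations. Abbreviation: GI50, concentration required for 50% inhibition of growth. TGI denotes the concentration required for complete inhibition of growth.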

With `CC(C)C(OC(=O)c1cc(NC(=S)c2ccccc2)ccc1Cl)C(C)C`, the TGI is 39.6 µM in [1]; 34.4 µM in [2]; 82 µM in [3]; over 89.6 µM in [4]; over 100 µM in assay [5]; 99.4 µM in assay [6]. Moreover, the TGI in [7] was 65.5 µM; in assay [8], over 96.7 µM; in [9] it was over 73.5 µM; in assay [10], over 90 µM.

Take `CP(=O)(CCSc1ccccc1)c1ccccc1` (configuration not stated): the TGI in assay [1], in assay [2], in [3], in [4], in [5] and in assay [6] was over 100 µM throughout. The TGI in assay [7], in [8], in assay [9] and in assay [10] was over 100 µM in each case.

Regarding `CC(=O)OC1CC(C)c2c1ncnc2N1CCN(C(=O)OC(C)(C)C)CC1` (configuration not stated), the GI50 in [1] was 79.4 µM; in [2] it was 19.4 µM; in assay [3], 67.2 µM; in [4] it was 42.9 µM; in assay [5] it was 78.5 µM; in [6] it was 53.7 µM. Further, the GI50 in [7] was 30.8 µM; in [8], 32.9 µM; in assay [9], 35.1 µM; in assay [10], 72.9 µM. Also, the TGI was over 100 µM in assay [1]; 91.4 µM in assay [2]; over 100 µM in [3]; over 100 µM in assay [4]; over 100 µM in assay [5]; over 100 µM in assay [6]. Moreover, the TGI in assay [7], in assay [8], in assay [9] and in assay [10] was over 100 µM each time.

As for `COc1cc2c3c(n(CCCn4cccn4)c(=O)c2cc1OC)-c1cc2c(cc1C3=O)OCO2`, the GI50 in [1] is 0.463 µM; in assay [2], 1.34 µM; in [3], 0.586 µM; in [4] it was 1.39 µM; in assay [5], 1.08 µM; in [6] it was 4.13 µM. In addition, the GI50 in assay [7] was 0.56 µM; in assay [8], 0.341 µM; in [9], 2.44 µM; in [10], 5.35 µM. In addition, the TGI is 3.08 µM in assay [1]; 18.6 µM in assay [2]; over 100 µM in assay [3]; over 100 µM in assay [4]; over 100 µM in assay [5]; over 100 µM in assay [6]. The TGI in assay [7] was 5.08 µM; in assay [8] it was 2.34 µM; in [9], 22.4 µM; in assay [10], over 100 µM.

Take `CCCCCCCCCCCCCCCC[N+](C)(C)C`: the GI50 in [1] is 0.285 µM and 2.06 µM; in [2], 0.0918 µM; in [3] it was 0.177 µM and 1.21 µM; in assay [4], 0.239 µM and 1.31 µM; in assay [5], 0.129 µM; in assay [6] it was 0.314 µM and 2.12 µM. The GI50 in assay [7] was 1.49 µM; in assay [8] it was 0.656 µM; in [9] it was 0.142 µM; in assay [10], 0.482 µM and 2.24 µM. Also, the TGI was 1.07 µM and 4.56 µM in assay [1]; 0.353 µM in assay [2]; 0.483 µM and 3.12 µM in [3]; 0.859 µM and 2.97 µM in assay [4]; 0.255 µM in [5]; 1.35 µM and 6.2 µM in assay [6]. Moreover, the TGI in [7] is 3.18 µM; in assay [8] it was 2.44 µM; in [9], 0.792 µM; in [10], 1.72 µM and 6.88 µM.

With `O=C(Oc1ccccc1Cl)c1cccnc1Nc1ccnc(C(F)(F)F)c1`, the GI50 is 4.03 µM in [1]; 35.2 µM in assay [2]; 10.1 µM in assay [3]; 3.72 µM in assay [4]; 23.4 µM in [5]; 36.9 µM in assay [6]. Moreover, the GI50 in [7] was 13.4 µM; in assay [8], 2.4 µM; in [9] it was 12.4 µM; in assay [10], 20.4 µM. The TGI in [1] was 18 µM; in [2], over 100 µM; in assay [3], 33.6 µM; in [4] it was 22.3 µM; in [5], 70.1 µM; in assay [6] it was over 100 µM. Moreover, the TGI was determined as 39.8 µM in assay [7], 6.52 µM in assay [8], 36.7 µM in [9] and 46.8 µM in assay [10].

As for `CCOc1ccccc1N=C(NC(=O)CC)SC`, the GI50 in assay [1] is over 10 µM; in assay [3], over 100 µM; in [4], over 100 µM; in [5], over 100 µM; in assay [7] it was over 100 µM; in assay [8], over 10 µM. Also, the figures for the GI50 in [9] and in assay [10] were over 10 µM and over 100 µM, respectively. In addition, the TGI is over 100 µM in assay [1]; over 10 µM in assay [2]; over 100 µM in assay [3]; over 100 µM in [4]; over 100 µM in assay [5]; over 10 µM in assay [6]. Further, the TGI in [7], in assay [8], in [9] and in [10] was over 100 µM throughout.

Take `CCOC(=O)NC(=O)c1cn(-c2ccc(CCOC(=O)CCCCCCCCC(=O)OCCc3ccc(-n4cc(C(=O)NC(=O)OCC)c(=O)[nH]c4=O)cc3)cc2)c(=O)[nH]c1=O`: the TGI is over 100 µM in assay [1]; 88.7 µM in assay [2]; over 100 µM in [3]; over 100 µM in [4]; over 100 µM in [5]; over 100 µM in assay [6]. The TGI in assay [7], in [8], in [9] and in assay [10] was over 100 µM throughout.

For `CCCCC/C=C1\CCC(CN2CCOCC2)C1=O` (configuration not stated), the TGI in assay [1] turned out to be 37.6 µM; in assay [2], 29 µM; in assay [3], 34 µM; in assay [4], 11.5 µM; in assay [5] it was 32.4 µM; in assay [6] it was 35.3 µM. Besides, the TGI in [7] was 30 µM; in assay [8], 29.9 µM; in assay [9], 3.02 µM; in assay [10], 21.2 µM.

As to `COc1cc(C(C)c2cc3c(cc2OCCOCCOc2cc4c(cc2C(C)c2cc(OC)c(OC)c(OC)c2)OCO4)OCO3)cc(OC)c1OC` (configuration not stated), the GI50 in [1], in assay [3], in assay [4], in assay [5], in [6] and in assay [7] was over 100 µM throughout. Besides, the GI50 in [8] and in assay [10] was over 100 µM throughout. For the same compound, the TGI in assay [1], in assay [2], in assay [3], in [4], in assay [5] and in assay [6] was over 100 µM in each case. The TGI in assay [7], in assay [8], in assay [9] and in [10] was over 100 µM each time.

For `C=C(C)[C@@H]1CC[C@]2(c3ncc(C)o3)CC[C@]3(C)[C@H](CC[C@@H]4[C@@](C)(CCC#N)[C@H](C(=C)C)CC[C@]43C)[C@@H]12`, the GI50 in assay [1] was 3.16 µM; in assay [2], 1.56 µM; in assay [3] it was 4.68 µM; in [4] it was 5.81 µM; in assay [5], 3.66 µM; in assay [6], 11.4 µM. In addition, the GI50 in assay [7] was 9.05 µM; in assay [8], 2.93 µM; in [9], 2.44 µM; in [10] it was 5.42 µM. In addition, the TGI in assay [1] amounted to 12.1 µM; in [2], 3.39 µM; in [3] it was 18.9 µM; in assay [4] it was 20.8 µM; in assay [5] it was 14.5 µM; in assay [6] it was 25.2 µM. Besides, the TGI in assay [7] was determined as 21.7 µM; in assay [8], 10.2 µM; in [9], 6.9 µM; in [10], 18.4 µM.

In the case of `CCCCn1c(=O)c(/C=C/C(=O)/C=C/c2ccc(O)c(OC)c2)cc2ccc(Cl)cc21`, the GI50 in assay [1] was 1.91 µM; in [2], 1.75 µM; in assay [3], 1.96 µM; in assay [4] it was 2.05 µM; in assay [5], 1.62 µM; in [6] it was 3.82 µM. Moreover, the GI50 in [7] is 1.62 µM; in [8] it was 2.79 µM; in [9], 2.46 µM; in assay [10] it was 1.93 µM. The TGI is 4.17 µM in [1]; 4.19 µM in [2]; 5.43 µM in assay [3]; 4.37 µM in [4]; 3.3 µM in assay [5]; 14.2 µM in assay [6]. In addition, the TGI in assay [7] is 3.18 µM; in assay [8] it was 22 µM; in assay [9] it was 7.62 µM; in assay [10] it was 4.12 µM.

Turning to `COc1ccc(-n2nc(C)c3c(Nc4ccc(NC(=O)Nc5cc(C(F)(F)F)ccc5F)cc4)ncnc32)cc1`, the GI50 in assay [1] is 2.96 µM; in assay [2], 2.23 µM; in assay [3], 3.24 µM; in assay [4], 3.45 µM; in [5], 3.66 µM; in assay [6], 3.48 µM. Moreover, the GI50 is 1.94 µM in assay [7], 2.94 µM in [8], 2.26 µM in assay [9] and 2.51 µM in assay [10]. In addition, the TGI in assay [1] was 42.9 µM; in assay [2], 6.26 µM; in [3], over 100 µM; in [4] it was 22.6 µM; in [5], over 100 µM; in assay [6], 82.3 µM. For the same compound, the TGI in assay [7] was 4.87 µM; in assay [8], over 100 µM; in assay [9] it was 5.88 µM; in [10], 6.29 µM.

With `Cc1ccc2nc(NC(=O)CSC(=S)N3CCN(Cc4ccccc4)CC3)sc2c1`, the GI50 is over 100 µM in [1]; 4.05 µM in assay [2]; over 100 µM in assay [3]; over 100 µM in assay [4]; over 100 µM in [5]; over 100 µM in [6]. For the same compound, the GI50 is over 100 µM in [7], over 100 µM in assay [8], 75.9 µM in assay [9] and over 100 µM in [10]. For the same compound, the TGI in assay [1], in [2], in assay [3], in assay [4], in assay [5] and in assay [6] was over 100 µM in each case. Moreover, the TGI in assay [7], in assay [8], in assay [9] and in assay [10] was over 100 µM throughout.

On to `CC(C)[C@H](COC(C)(C)C)N=CN1CSc2ccccc21`, for which the TGI in [1] was 84.1 µM; in [2], 41.9 µM; in assay [3], over 100 µM; in [4] it was over 100 µM; in assay [5], over 100 µM; in [6], 78.3 µM. Moreover, the TGI was 65.6 µM in [7], over 100 µM in assay [8], 54 µM in assay [9] and over 100 µM in assay [10].

In the case of `Cc1cc(Cl)ccc1N1C(=O)C(=O)C(c2nc3ccccc3s2)/C(=N\NC(=O)c2ccccc2O)C1=O` (configuration not stated), the TGI in assay [1], in assay [2], in assay [3], in assay [4], in [5] and in [6] was over 100 µM each time. For the same compound, the TGI in assay [7], in assay [8], in [9] and in assay [10] was over 100 µM throughout.

With `CCN(CCc1ccc(F)cc1)c1ccc(CO)c(Cl)c1`, the GI50 in [1] is 9.27 µM; in [2] it was 1.94 µM; in assay [3], 14.3 µM; in assay [4] it was 8.84 µM; in [5], 13.2 µM; in assay [6], 12.4 µM. In addition, the GI50 is 15.7 µM in assay [7], 15.6 µM in [8], 4.69 µM in assay [9] and 16.3 µM in assay [10]. Moreover, the TGI in assay [1] worked out at 23 µM; in assay [2], 13.5 µM; in [3] it was 28.6 µM; in assay [4], 24.2 µM; in [5], 26.6 µM; in [6] it was 27.8 µM. Besides, the TGI in assay [7] came out at 29.3 µM; in [8] it was 47.3 µM; in [9], 27.4 µM; in [10], 31.2 µM.

In the case of `Cc1ccc(S(=O)(=O)NC(C)C(=O)O)cc1` (configuration not stated), the TGI in assay [1], in assay [2], in assay [3], in assay [4], in assay [5] and in assay [6] was over 100 µM each time. For the same compound, the TGI in [7], in [8], in [9] and in assay [10] was over 100 µM each time. Further, the GI50 in assay [8] was 47.2 µM and > 100 µM.

Values taken from PubChem BioAssay (NCI).
